Among the test systems are M19-MEL melanoma; MDA-MB-435; DU-145 prostate; MCF7 breast; PC-3 prostate; NCI/ADR-RES ovarian; MDA-N; RXF-631 renal; HOP-18 NSCLC.
Common to all, as to assay: NCI anticancer screen, dose series, 48 h

The text below walks through data of PubChem BioAssay (NCI).

Several values for one entry are separate records, joined by “and”; a condition that tells them apart may be missing. Identical values can stand only once.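 96-well plates; 48 h exposure; 5 concentrations. Endpoints by linear interpolation between flanking doses. Not reached: highest tested concentration assigned. GI50 = concentration required for 50% inhibition of growth. TGI: total growth inhibition.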 A value given as a limit tells only on which side of the number the result lay.

Turning to `N#Cc1c2c(c(N=[N+]=[N-])n3c1nc1ccccc13)CCCC2`, the TGI in the experiment on M19-MEL melanoma amounted to 6.1 µM.

`CCOC(=O)/C=C1\Nc2ccccc2C(c2ccccc2)=NC1OC(C)=O` (stereo not given) had a TGI in the experiment with M19-MEL melanoma of over 100 µM.

Turning to `CN1CC2(CCCCC2)C(O)C12C=CCCC2` (stereo not given), the TGI in the experiment on M19-MEL melanoma is over 100 µM.

Regarding `COc1ccc2c(c1O)[C@@]13C=C(O)C(=O)C=C1[C@@H](C2)N(C)CC3`, the TGI with MDA-MB-435, in the experiment on DU-145 prostate, with MCF7 breast, in the experiment with PC-3 prostate, in the experiment on NCI/ADR-RES ovarian and in the experiment with MDA-N was over 100 µM each time.

`CC(=O)[CH-]C(=O)c1ccccc1.CC(=O)[CH-]C(=O)c1ccccc1.[O]=[U+2]=[O]`: in the experiment on M19-MEL melanoma, the GI50 was 28.9 µM and the TGI was over 100 µM.

For the molecule `O=C1c2c(O)cccc2C(C(=O)CCCCC(=O)C2c3cccc(O)c3C(=O)c3c(O)cccc32)c2cccc(O)c21`, the TGI was 3.01 µM in the experiment on MDA-MB-435; 1.81 µM with DU-145 prostate; 3.61 µM and 2.81 µM with RXF-631 renal; 6.18 µM in the experiment on MCF7 breast; 0.458 µM with PC-3 prostate; 3.77 µM in the experiment on MDA-N. In the experiment on HOP-18 NSCLC, the TGI was 1.79 µM and 1.88 µM. Moreover, the GI50 with RXF-631 renal was 1.36 µM; in the experiment on HOP-18 NSCLC, 0.996 µM.

Regarding `O=c1c2ccccc2nc(-c2ccccc2)n1NCC1(O)OCC(O)C(O)C1O` (stereo not given), the TGI in the experiment on HOP-18 NSCLC and with M19-MEL melanoma was over 100 µM in each case.

`CO[C@H]1C=C[C@]23c4cc5c(cc4CN(CC2O)[C@@H]3C1)OCO5` (stereo not given in full): the TGI amounted to 41.9 µM in the experiment with MDA-MB-435; 7.62 µM with DU-145 prostate; 18.6 µM in the experiment on PC-3 prostate; 58.8 µM in the experiment on NCI/ADR-RES ovarian; 64.8 µM in the experiment on MDA-N.

As for `C/C(=N\NS(=O)(=O)c1ccc(C)cc1)c1ccc[n+]([O-])n1`, the TGI in the experiment on HOP-18 NSCLC and in the experiment with M19-MEL melanoma was over 100 µM throughout.

Regarding `S=C(Nc1ccccc1)Nc1[nH]c(=S)sc1-c1nc2ccccc2[nH]1`, the TGI with RXF-631 renal, with HOP-18 NSCLC and in the experiment on M19-MEL melanoma was over 100 µM throughout.

`O=C(Cc1nc2ccc(C(=O)c3ccccc3)cc2[nH]c1=O)C(=O)Nc1ccccc1[N+](=O)[O-]`: the TGI in the experiment with MDA-MB-435, with MCF7 breast, in the experiment on PC-3 prostate, in the experiment with NCI/ADR-RES ovarian and in the experiment on MDA-N was over 100 µM each time.

With `CN1CCCC1c1cccnc1.O=C(O)c1ccccc1O.O=C([O-])c1ccccc1[OH2+].O=C([O-])c1ccccc1[OH2+].O=C([O-])c1ccccc1[OH2+].[Mn+2]` (stereo not given), the GI50 was over 100 µM with MDA-MB-435; over 100 µM with DU-145 prostate; 50 µM with MCF7 breast; 95.5 µM in the experiment with PC-3 prostate; over 100 µM with NCI/ADR-RES ovarian; over 100 µM in the experiment on MDA-N. The TGI in the experiment with MDA-MB-435, in the experiment on DU-145 prostate, with MCF7 breast, with PC-3 prostate, in the experiment with NCI/ADR-RES ovarian and in the experiment on MDA-N was over 100 µM each time.

For `CC(C)c1ccc(/C=C(\NC(=O)c2ccccc2)c2nc3ccccc3[nH]2)cc1`, the TGI with RXF-631 renal, with HOP-18 NSCLC and in the experiment with M19-MEL melanoma was over 100 µM throughout.

As for `COC(=O)/C(C#N)=C1\N=NNN1CCCN1CCOCC1`, the TGI in the experiment with HOP-18 NSCLC and in the experiment on M19-MEL melanoma was over 100 µM throughout.

`O=C1CCC2(CCC(=O)NC2=O)C(=O)N1` came in with a TGI in the experiment with M19-MEL melanoma of over 100 µM.

Regarding `O=C(CCCCCCCCC(=O)OCC1OC(n2cnc3c(=O)[nH]cnc32)C(O)C1O)OCC1OC(n2cnc3c(=O)[nH]cnc32)C(O)C1O` (stereo not given), the TGI in the experiment with HOP-18 NSCLC and with M19-MEL melanoma was over 100 µM in each case.

In the case of `Cc1ccc(NC(=O)CCC(=O)C2CC(=O)CC/C2=N\NC(=O)c2cc3ccccc3cc2O)cc1C` (stereo not given), the TGI in the experiment on RXF-631 renal is over 100 µM; in the experiment on HOP-18 NSCLC, over 100 µM; in the experiment on M19-MEL melanoma it was 90.7 µM.

With `COc1cc2c3c(c1OC)-c1ccccc1C(C(OC(C)=O)c1ccccc1)C3N(C)CC2` (stereo not given), the TGI in the experiment with HOP-18 NSCLC and with M19-MEL melanoma was over 100 µM throughout.

`CC[C@@]1(OC(=O)CN)C(=O)OCc2c1cc1n(c2=O)Cc2cc3cc(N)ccc3nc2-1`: the GI50 in the experiment on MDA-MB-435 was 0.0802 µM; in the experiment on DU-145 prostate, under 0.01 µM; in the experiment with MCF7 breast, under 0.01 µM; with PC-3 prostate, 0.0711 µM; in the experiment on NCI/ADR-RES ovarian it was under 0.0103 µM; in the experiment on MDA-N, 0.0772 µM. The TGI in the experiment on MDA-MB-435 is 0.381 µM; in the experiment on DU-145 prostate it was over 76.5 µM; with MCF7 breast it was over 100 µM; in the experiment with PC-3 prostate it was over 100 µM; with NCI/ADR-RES ovarian it was 0.125 µM; with MDA-N, 1.09 µM.

In the experiment on HOP-18 NSCLC, `O=C1[C@H]2C(c3ccccc3)=NN(C(=O)c3ccccc3)[C@H]2C(=O)N1c1ccccc1` displayed a TGI of over 100 µM.

The molecule `COc1cc2ccn3c4cc(OC)c(OC)cc4cc3c2cc1OC` gave a TGI with M19-MEL melanoma of over 100 µM.

On to `c1ccc(SCCCC(Sc2ccccc2)Sc2ccccc2)cc1`, for which the TGI with M19-MEL melanoma was over 100 µM.

In the experiment with M19-MEL melanoma, `CC1=C(C#N)C(N)=C2C(C)=C(C#N)C(N)=C12` gave a TGI of over 100 µM.

As for `Cc1nnc2n1N=C(CC(=O)c1ccc(O)cc1O)CN2N`, the TGI in the experiment on RXF-631 renal and in the experiment on M19-MEL melanoma was over 100 µM in each case.

Turning to `O=C(O)c1cc(Cl)cc(NC(=O)C(Cl)Cl)c1Cl`, the TGI in the experiment on RXF-631 renal, in the experiment with HOP-18 NSCLC and in the experiment on M19-MEL melanoma was over 100 µM in each case.

For `CCOC(=O)CCC1(C(=O)OC)CCCC1=O` (stereo not given), the TGI in the experiment with HOP-18 NSCLC and with M19-MEL melanoma was over 100 µM throughout.

For `CC1CCC(O)C(C(O)CC2CC(=O)N(C)C(=O)C2)C1` (stereo not given), the TGI in the experiment with RXF-631 renal, in the experiment on HOP-18 NSCLC and with M19-MEL melanoma was over 100 µM throughout.

As to `COc1cc(C(c2cc3c(cc2O)OCO3)N2CCCC2)cc(OC)c1OC` (stereo not given), the TGI with MDA-MB-435 was 32.5 µM; in the experiment on DU-145 prostate, 36 µM; in the experiment on MCF7 breast, 63.8 µM; with PC-3 prostate, 34.7 µM; with NCI/ADR-RES ovarian, 56.4 µM; in the experiment on MDA-N, 27.9 µM.

Take `Oc1cccc(-c2nc3ccccc3s2)c1`: the TGI is over 100 µM in the experiment with MDA-MB-435; over 100 µM in the experiment on DU-145 prostate; over 100 µM in the experiment with MCF7 breast; over 100 µM with PC-3 prostate; 68.8 µM in the experiment on NCI/ADR-RES ovarian; 98.7 µM in the experiment on MDA-N.

For `Nc1ncnc2occ(-c3ccc(NC(=O)Nc4cc(C(F)(F)F)cc(C(F)(F)F)c4)cc3)c12`, the GI50 was 3.45 µM in the experiment with MDA-MB-435; 3.59 µM with DU-145 prostate; 3.19 µM in the experiment on MCF7 breast; 3.07 µM with PC-3 prostate; 3.44 µM in the experiment on NCI/ADR-RES ovarian. Moreover, the TGI in the experiment on MDA-MB-435 was determined as 7.15 µM; with DU-145 prostate, 7.34 µM; in the experiment on MCF7 breast, 6.96 µM; with PC-3 prostate, 8.33 µM; with NCI/ADR-RES ovarian it was 9.07 µM.
